For the assay, the target named is Recombinant human JAK3 enzyme (JAK3 kinase region; Ala795-Ser1124) (Homo sapiens, UniProt P52333). Briefly: JAK3 Kinase Assay (Kinase-Glo luminescent, ATP consumption). The conditions noted are these: read-out: Inhibition rate (%) of JAK3 kinase activity. Background: In Kinase-Glo more light means more ATP remaining.
Recombinant human JAK3 enzyme (JAK3 kinase region; Ala795-Ser1124), sequence (P52333 795-1124): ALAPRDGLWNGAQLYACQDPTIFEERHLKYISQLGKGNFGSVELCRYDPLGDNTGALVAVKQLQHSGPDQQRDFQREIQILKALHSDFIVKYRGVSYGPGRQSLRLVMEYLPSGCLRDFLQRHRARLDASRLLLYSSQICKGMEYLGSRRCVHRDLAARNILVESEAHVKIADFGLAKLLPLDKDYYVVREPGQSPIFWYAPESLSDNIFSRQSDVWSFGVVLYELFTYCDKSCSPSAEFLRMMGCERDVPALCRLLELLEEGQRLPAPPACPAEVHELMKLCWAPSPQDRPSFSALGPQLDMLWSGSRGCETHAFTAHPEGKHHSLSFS

The inhibition is the change of the read-out against control, counted positive when it falls. For `CN1CCC(Oc2ccc(Nc3cc(NCc4ccccc4)c(C(N)=O)cn3)cc2)CC1` [Example 52, 4-(benzylamino)-6-({4-[(1-methylpiperidin-4-yl)oxy]phenyl}amino)pyridine-3-carboxyamide], the inhibition at 0.1 µM is 72%.
Turning to `NC(=O)c1cnc(Nc2ccc(N3CCC(CCO)CC3)cc2)cc1NCc1ccccc1` [Example 57, 4-(benzylamino)-6-({4-[4-(2-hydroxyethyl)piperidino]phenyl}amino)pyridine-3-carboxyamide], the inhibition at 0.1 µM is 89%.
Regarding `CCN(CC)CCC1CCN(c2ccc(Nc3cc(NCc4ccccc4)c(C(N)=O)cn3)cc2)CC1` [Example 59, 4-(benzylamino)-6-[(4-{4-[2-(diethylamino)ethyl]piperidino}phenyl)amino]pyridine-3-carboxyamide], the inhibition at 0.1 µM came to 76%.
Take `N#CCCC1CCN(c2ccc(Nc3cc(NCc4ccccc4)c(C(N)=O)cn3)cc2)CC1` [Example 60, 4-(benzylamino)-6-({4-[4-(2-cyanoethyl)piperidino]phenyl}amino)pyridine-3-carboxyamide]: the inhibition at 0.1 µM came to 65%.
With `NC(=O)c1cnc(Nc2ccc(N)cc2)cc1NCc1ccccc1` [Example 65, 6-[(4-aminophenyl)amino]-4-(benzylamino) pyridine-3-carboxyamide], the inhibition at 0.1 µM came out at 79%.
In the case of `NC(=O)c1cnc(Nc2ccc(NCCN3CCOCC3)cc2)cc1NCc1ccccc1` [Example 70, 4-(benzylamino)-6-({4-[(2-morpholinoethyl)amino]phenyl}amino)pyridine-3-carboxyamide], the inhibition at 0.1 µM came to 75%.
In the case of `CN(CCN1CCOCC1)c1ccc(Nc2cc(NCc3ccccc3)c(C(N)=O)cn2)cc1` [Example 71, 4-(benzylamino)-6-({4-[methyl(2-morpholinoethyl)amino]phenyl}amino)pyridine-3-carboxyamide], the inhibition at 0.1 µM is 70%.
Consider `NC(=O)c1cnc(Nc2ccc(N3CCOCC3)cc2)cc1NCc1ccccc1` [Example 72, 4-(benzylamino)-6-{(4-morpholinophenyl)amino]pyridine-3-carboxyamide], for which the inhibition at 0.1 µM was determined as 65%.
For the compound `COc1ccccc1CNc1cc(Nc2ccc(N3CCOCC3)cc2)ncc1C(N)=O` [Example 73, 4-[(2-methoxybenzyl)amino]-6-[(4-morpholinophenyl)amino]pyridine-3-carboxyamide], the inhibition at 0.1 µM was determined as 56%.
Regarding `Cc1ccccc1CNc1cc(Nc2ccc(N3CCOCC3)cc2)ncc1C(N)=O` [Example 76, 4-[(2-methylbenzyl)amino]-6-[(4-morpholinophenyl)amino]pyridine-3-carboxyamide], the inhibition at 0.1 µM is 63%.
The figure for `Cc1cccc(CNc2cc(Nc3ccc(N4CCOCC4)cc3)ncc2C(N)=O)c1` [Example 77, 4-[(3-methylbenzyl)amino]-6-[(4-morpholinophenyl)amino]pyridine-3-carboxyamide] is 55%; for `NC(=O)c1cnc(Nc2ccc(N3CCOCC3)cc2)cc1NCc1ccccc1Cl` [Example 80, 4-[(2-chlorobenzyl)amino]-6-[(4-morpholinophenyl)amino]pyridine-3-carboxyamide] it is 79%.
In the case of `NC(=O)c1cnc(Nc2ccc(N3CCOCC3)cc2)cc1NCc1cccc(Cl)c1` [Example 81, 4-[(3-chlorobenzyl)amino]-6-[(4-morpholinophenyl)amino]pyridine-3-carboxyamide], the inhibition at 0.1 µM came out at 72%.
On to `NC(=O)c1cnc(Nc2ccc(N3CCOCC3)cc2)cc1NCc1cccc(F)c1F` [Example 90, 4-[(2,3-difluorobenzyl)amino]-6-[(4-morpholinophenyl)amino]pyridine-3-carboxyamide], for which the inhibition at 0.1 µM was determined as 77%.
As for `NC(=O)c1cnc(Nc2ccc(N3CCOCC3)cc2)cc1NCc1cc(F)cc(F)c1` [Example 91, 4-[(3,5-difluorobenzyl)amino]-6-[(4-morpholinophenyl)amino]pyridine-3-carboxyamide], the inhibition at 0.1 µM turned out to be 92%.
As to `NC(=O)c1cnc(Nc2ccc(N3CCOCC3)cc2)cc1NCc1cc(F)ccc1F` [Example 93, 4-[(2,5-difluorobenzyl)amino]-6-[(4-morpholinophenyl)amino]pyridine-3-carboxyamide], the inhibition at 0.1 µM turned out to be 86%.
With `NC(=O)c1cnc(Nc2ccc(N3CCOCC3)cc2)cc1NCc1c(F)cccc1F` [Example 94, 4-[(2,6-difluorobenzyl)amino]-6-[(4-morpholinophenyl)amino]pyridine-3-carboxyamide], the inhibition at 0.1 µM was 96%.
In the case of `NC(=O)c1cnc(Nc2ccc(N3CCOCC3)cc2)cc1NCc1cc(F)cc(C(F)(F)F)c1` [Example 96, 6-[(4-morpholinophenyl)amino]-4-{[3-fluoro-5-(trifluoromethyl)benzyl]amino}pyridine-3-carboxyamide], the inhibition at 0.1 µM was 74%.
As for `COc1ccc(F)cc1CNc1cc(Nc2ccc(N3CCOCC3)cc2)ncc1C(N)=O` [Example 99, 4-[(5-fluoro-2-methoxybenzyl)amino]-6-[(4-morpholinophenyl)amino]pyridine-3-carboxyamide], the inhibition at 0.1 µM amounted to 80%.
Turning to `NC(=O)c1cnc(Nc2ccc(N3CCOCC3)cc2)cc1NCc1cccc([N+](=O)[O-])c1` [Example 102, 6-[(4-morpholinophenyl)amino]-4-[(3-nitrobenzyl)amino]pyridine-3-carboxyamide], the inhibition at 0.1 µM is 53%.
Under `NC(=O)c1cccc(CNc2cc(Nc3ccc(N4CCOCC4)cc3)ncc2C(N)=O)c1` [Example 115, 4-[(3-carbamoylbenzyl)amino]-6-[(4-morpholinophenyl)amino]pyridine-3-carboxyamide] stands 70%; under `C[C@H]1COCCN1c1ccc(Nc2cc(NCc3ccccc3)c(C(N)=O)cn2)cc1` [Example 134, 4-(benzylamino)-6-({4-[(3S)-3-methylmorpholino]phenyl}amino)pyridine-3-carboxyamide], 83%.
Regarding `C[C@@H]1CN(c2ccc(Nc3cc(NCc4ccccc4)c(C(N)=O)cn3)cc2)C[C@H](C)N1` [Example 136, 4-(benzylamino)-6-({4-[(3R,5S)-3,5-dimethylpiperazin-1-yl]phenyl}amino)pyridine-3-carboxyamide], the inhibition at 0.1 µM came out at 80%.
With `C[C@@H]1CN(c2ccc(Nc3cc(NCc4cccc(F)c4F)c(C(N)=O)cn3)cc2)C[C@H](C)N1` [Example 140, 4-[(2,3-difluorobenzyl)amino]-6-({4-[(3R,5S)-3,5-dimethylpiperazin-1-yl]phenyl}amino)pyridine-3-carboxyamide], the inhibition at 0.1 µM is 62%.
The figure for `C[C@@H]1CN(c2ccc(Nc3cc(NCc4cc(F)cc(F)c4)c(C(N)=O)cn3)cc2)C[C@H](C)N1` [Example 141, 4-[(3,5-difluorobenzyl)amino]-6-({4-[(3R,5S)-3,5-dimethylpiperazin-1-yl]phenyl}amino) pyridine-3-carboxyamide] is 83%; for `C[C@@H]1CN(c2ccc(Nc3cc(NCc4cc(F)ccc4F)c(C(N)=O)cn3)cc2)C[C@H](C)N1` [Example 142, 4-[(2,5-difluorobenzyl)amino]-6-({4-[(3R,5S)-3,5-dimethylpiperazin-1-yl]phenyl}amino) pyridine-3-carboxyamide] it is 66%.
Under `C[C@@H]1CN(c2cccc(Nc3cc(NCc4cc(F)cc(F)c4)c(C(N)=O)cn3)c2)C[C@H](C)N1` [Example 144, 4-[(3,5-difluorobenzyl)amino]-6-({3-[(3R,5S)-3,5-dimethylpiperazin-1-yl]phenyl}amino) pyridine-3-carboxyamide] stands 61%.
Under `CN1CCN(c2ccc(Nc3cc(NCc4ccccc4)c(C(N)=O)cn3)cc2)CC1` [Example 145, 4-(benzylamino)-6-{[4-(4-methylpiperazin-1-yl)phenyl]amino}pyridine-3-carboxyamide] stands 63%; under `CC(C)N1CCN(c2ccc(Nc3cc(NCc4ccccc4)c(C(N)=O)cn3)cc2)CC1` [Example 146, 4-(benzylamino)-6-({4-[4-(propan-2-yl)piperazin-1-yl]phenyl}amino)pyridine-3-carboxyamide], 78%; under `COc1ccccc1CNc1cc(Nc2ccc(N3CCN(C(C)C)CC3)cc2)ncc1C(N)=O` [Example 147, 4-[(2-methoxybenzyl)amino]-6-({4-[4-(propan-2-yl)piperazin-1-yl]phenyl}amino)pyridine-3-carboxyamide], 58%.
Turning to `CC(C)N1CCN(c2ccc(Nc3cc(NCc4cccc(F)c4F)c(C(N)=O)cn3)cc2)CC1` [Example 150, 4-[(2,3-difluorobenzyl)amino]-6-({4-[4-(propan-2-yl)piperazin-1-yl]phenyl}amino)pyridine-3-carboxyamide], the inhibition at 0.1 µM worked out at 66%.
As for `CC(C)N1CCN(c2ccc(Nc3cc(NCc4cc(F)cc(F)c4)c(C(N)=O)cn3)cc2)CC1` [Example 151, 4-[(3,5-difluorobenzyl)amino]-6-({4-[4-(propan-2-yl)piperazin-1-yl]phenyl}amino)pyridine-3-carboxyamide], the inhibition at 0.1 µM was 69%.
For the compound `CC(C)N1CCN(c2ccc(Nc3cc(NCc4c(F)cccc4F)c(C(N)=O)cn3)cc2)CC1` [Example 153, 4-[(2,6-difluorobenzyl)amino]-6-({4-[4-(propan-2-yl)piperazin-1-yl]phenyl}amino)pyridine-3-carboxyamide], the inhibition at 0.1 µM was determined as 94%.
Turning to `CC(C)N1CCN(c2cccc(Nc3cc(NCc4cc(F)cc(F)c4)c(C(N)=O)cn3)c2)CC1` [Example 155, 4-[(3,5-difluorobenzyl)amino]-6-({3-[4-(propan-2-yl)piperazin-1-yl]phenyl}amino)pyridine-3-carboxyamide], the inhibition at 0.1 µM was 59%.
For `CS(=O)(=O)Nc1ccc(Nc2cc(NCc3cccc([N+](=O)[O-])c3)c(C(N)=O)cn2)cc1` [Example 160, 4-[(3-nitrobenzyl)amino]-6-({4-[(methylsulfonyl)amino]phenyl}amino)pyridine-3-carboxyamide], the inhibition at 0.1 µM is 66%.
For `CCCS(=O)(=O)Nc1ccc(Nc2cc(NCc3cc(F)cc(F)c3)c(C(N)=O)cn2)cc1` [Example 162, 4-[(3,5-difluorobenzyl)amino]-6-({4-[(propylsulfonyl)amino]phenyl}amino)pyridine-3-carboxyamide], the inhibition at 0.1 µM came to 72%.

Source of the values: patent publication US8575153B2 (Kowa Company, Ltd., priority 2008, dated 2013).
